The values below come from PubChem BioAssay AID256 (DTP/NCI, 2004).

The test system of this experiment is CD2F1 mice, L1210 leukemia ip, survival T/C. In words: NCI In Vivo Anticancer Drug Screen. Data for tumor model L1210 Leukemia (intraperitoneal) in CD2F1 (CDF1) mice. The note with it: higher = longer survival. The method, boiled down:
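Activity against a transplanted murine tumor was judged by comparing the compound group with a vehicle group. The outcome in the treated animals was divided by that in the controls.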

[1] abbreviates: endpoint: mean survival time, dose: 100.0 mg/kg/injection, schedule: Q01DX009 (ip), vehicle: saline with Tween-80.
Setting [2] is: endpoint: mean survival time, dose: 200.0 mg/kg/injection, schedule: Q01DX009 (ip), vehicle: saline with Tween-80.
[3] abbreviates: endpoint: mean survival time, dose: 400.0 mg/kg/injection, schedule: Q01DX009 (ip), vehicle: saline with Tween-80.
Where [4] appears, read: endpoint: mean survival time, dose: 100.0 mg/kg/injection, schedule: Q04DX003 (ip), vehicle: saline with Tween-80.
Where [5] appears, read: endpoint: mean survival time, dose: 200.0 mg/kg/injection, schedule: Q04DX003 (ip), vehicle: saline with Tween-80.
The mark [6] stands for this setting: endpoint: mean survival time, dose: 400.0 mg/kg/injection, schedule: Q04DX003 (ip), vehicle: saline with Tween-80.

The structures appear in SMILES notation. Where “and” joins values, the source holds several entries; their conditions need not be identical. Equal values may be shown once. Toxic doses and inconclusive results are not listed.

`C=C(OC)C(Nc1cc(OC)c(OC)cc1C(=O)OC1CC(O[C@@H]2C(=O)C(NC(=O)OC)=C3/C(=C\CSSSC)[C@]2(O)C#C/C=C\C#C[C@@H]3OC2OC(C)C(NOC3CC(O)C(SC)C(C)O3)C(O)C2OC2CC(OC)C(NCCC)CO2)OC(C)C1O)OC` (stereo partly drawn): the T/C is 117 % of control (endpoint: median survival time, dose: 0.1 micrograms/kg/injection, schedule: Q01DX005 (ip), vehicle: methylcellulose (MC)); 117 % of control (endpoint: median survival time, dose: 0.2 micrograms/kg/injection, schedule: Q01DX005 (ip), vehicle: methylcellulose (MC)); 109 % of control (endpoint: median survival time, dose: 0.2 micrograms/kg/injection, schedule: Q04DX003 (ip), vehicle: methylcellulose (MC)); 180 % of control (endpoint: median survival time, dose: 0.3 micrograms/kg/injection, schedule: Q01DX005 (ip), vehicle: saline + alcohol); 119 % of control (endpoint: median survival time, dose: 0.32 micrograms/kg/injection, schedule: Q01DX005 (ip), vehicle: saline + alcohol); 118 % of control (endpoint: median survival time, dose: 0.4 micrograms/kg/injection, schedule: Q01DX005 (ip), vehicle: methylcellulose (MC)). For the same molecule, the T/C is 118 % of control (endpoint: median survival time, dose: 0.4 micrograms/kg/injection, schedule: Q04DX003 (ip), vehicle: methylcellulose (MC)); 180 % of control (endpoint: median survival time, dose: 0.5 micrograms/kg/injection, schedule: Q01DX005 (ip), vehicle: saline + alcohol); 151 % of control (endpoint: median survival time, dose: 0.64 micrograms/kg/injection, schedule: Q01DX005 (ip), vehicle: saline + alcohol); 113 % of control (endpoint: median survival time, dose: 0.8 micrograms/kg/injection, schedule: Q01DX001 (ip), vehicle: methylcellulose (MC)); 170 % of control (endpoint: median survival time, dose: 0.8 micrograms/kg/injection, schedule: Q01DX005 (ip), vehicle: saline + alcohol); 122 % of control (endpoint: median survival time, dose: 0.8 micrograms/kg/injection, schedule: Q04DX003 (ip), vehicle: methylcellulose (MC)). Further, the T/C is, setting by setting: (endpoint: median survival time, dose: 1.28 micrograms/kg/injection, schedule: Q01DX005 (ip), vehicle: saline + alcohol) 170 % of control; (endpoint: median survival time, dose: 1.3 micrograms/kg/injection, schedule: Q01DX005 (ip), vehicle: saline + alcohol) 180 % of control; (endpoint: median survival time, dose: 2.1 micrograms/kg/injection, schedule: Q01DX005 (ip), vehicle: saline + alcohol) 180 % of control; (endpoint: median survival time, dose: 3.2 micrograms/kg/injection, schedule: Q01DX005 (ip), vehicle: methylcellulose (MC)) 162 % of control; (endpoint: median survival time, dose: 6.4 micrograms/kg/injection, schedule: Q01DX001 (ip), vehicle: methylcellulose (MC)) 150 % of control; (endpoint: median survival time, dose: 6.4 micrograms/kg/injection, schedule: Q01DX005 (ip), vehicle: methylcellulose (MC)) 94 % of control. The T/C is, setting by setting: (endpoint: median survival time, dose: 6.4 micrograms/kg/injection, schedule: Q04DX003 (ip), vehicle: methylcellulose (MC)) 152 % of control; (endpoint: median survival time, dose: 12.8 micrograms/kg/injection, schedule: Q01DX001 (ip), vehicle: methylcellulose (MC)) 150 % of control; (endpoint: median survival time, dose: 25.6 micrograms/kg/injection, schedule: Q01DX001 (ip), vehicle: methylcellulose (MC)) 104 % of control.

Regarding `CCOC(=O)/C=C/CP(=O)(OCC)OCC`, the T/C (endpoint: mean survival time, dose: 50.0 mg/kg/injection, schedule: Q01DX001 (ip), vehicle: carboxymethylcellulose (CMC)) was 102 % of control.

Regarding `Nc1ccn(C2OC(CO)C(OP(=O)(O)O)C2O)c(=O)n1` (stereo not drawn), the T/C (endpoint: mean survival time, dose: 4.4 mg/kg/injection, schedule: Q03HX024 (ip), vehicle: saline) was 229 % of control; the T/C (endpoint: mean survival time, dose: 8.7 mg/kg/injection, schedule: Q03HX024 (ip), vehicle: saline) is 252 % of control; the T/C (endpoint: mean survival time, dose: 17.4 mg/kg/injection, schedule: Q03HX024 (ip), vehicle: saline) is 296 % of control; the T/C (endpoint: mean survival time, dose: 34.8 mg/kg/injection, schedule: Q03HX024 (ip), vehicle: saline) was 111 % of control; the T/C (endpoint: mean survival time, dose: 200.0 mg/kg/injection, schedule: Q01DX009 (oral), vehicle: saline) was 159 % of control; the T/C (endpoint: mean survival time, dose: 400.0 mg/kg/injection, schedule: Q01DX009 (oral), vehicle: saline) was 175 % of control.

With `CCCCC(CC)C(=O)[O][Sn]([CH2]CCC)([CH2]CCC)[O]C(=O)C(CC)CCCC` (stereo not drawn), the T/C runs as follows: (endpoint: mean survival time, dose: 1.5 mg/kg/injection, schedule: Q01DX009 (ip), vehicle: saline with Tween-80) 100 % of control; (endpoint: mean survival time, dose: 3.0 mg/kg/injection, schedule: Q01DX009 (ip), vehicle: saline with Tween-80) 100 % of control; (endpoint: mean survival time, dose: 6.0 mg/kg/injection, schedule: Q01DX009 (ip), vehicle: saline with Tween-80) 104 % of control; (endpoint: mean survival time, dose: 6.25 mg/kg/injection, schedule: Q04DX003 (ip), vehicle: saline with Tween-80) 105 % of control.

In the case of `COc1ccc(/C=C/C(=O)c2ccc(Cl)cc2)c(OC)c1`, the T/C by setting is: (endpoint: mean survival time, dose: 100.0 mg/kg/injection, schedule: Q04DX003 (ip), vehicle: other) 101 % of control; (endpoint: mean survival time, dose: 200.0 mg/kg/injection, schedule: Q04DX003 (ip), vehicle: other) 95 % of control; (endpoint: mean survival time, dose: 400.0 mg/kg/injection, schedule: Q04DX003 (ip), vehicle: other) 93 % of control.

Regarding `NC(=O)NC1CCCCCC1`, the T/C was 102 % of control under setting [1], 109 % of control under setting [2] and 100 % of control under setting [3].

For `O=C1NC(=O)NC(C(=O)O)N1`, the T/C (endpoint: mean survival time, dose: 1.56 mg/kg/injection, schedule: Q01DX009 (ip), vehicle: DMSO) was 92 % of control; the T/C (endpoint: mean survival time, dose: 3.12 mg/kg/injection, schedule: Q01DX009 (ip), vehicle: DMSO) was 96 % of control; the T/C (endpoint: mean survival time, dose: 6.25 mg/kg/injection, schedule: Q01DX009 (ip), vehicle: DMSO) is 96 % of control; the T/C (endpoint: mean survival time, dose: 12.5 mg/kg/injection, schedule: Q01DX009 (ip), vehicle: DMSO) is 94 % of control and 98 % of control; the T/C (endpoint: mean survival time, dose: 25.0 mg/kg/injection, schedule: Q01DX009 (ip), vehicle: DMSO) is 97 % of control and 98 % of control and 101 % of control; the T/C (endpoint: mean survival time, dose: 50.0 mg/kg/injection, schedule: Q01DX009 (ip), vehicle: DMSO) was 97 % of control and 100 % of control. The T/C was 94 % of control and 97 % of control (endpoint: mean survival time, dose: 100.0 mg/kg/injection, schedule: Q01DX009 (ip), vehicle: DMSO); 102 % of control (endpoint: mean survival time, dose: 200.0 mg/kg/injection, schedule: Q01DX009 (ip), vehicle: DMSO); 98 % of control (endpoint: mean survival time, dose: 400.0 mg/kg/injection, schedule: Q01DX009 (ip), vehicle: DMSO).

Consider `Brc1cscc1-c1cccc2ccccc12`, for which the T/C is, setting by setting: (endpoint: mean survival time, dose: 12.5 mg/kg/injection, schedule: Q01DX009 (ip), vehicle: saline with Tween-80) 95 % of control; (endpoint: mean survival time, dose: 25.0 mg/kg/injection, schedule: Q01DX009 (ip), vehicle: saline with Tween-80) 95 % of control; (endpoint: mean survival time, dose: 50.0 mg/kg/injection, schedule: Q01DX009 (ip), vehicle: saline with Tween-80) 95 % of control.

For `O=C1C=CC(=O)c2c(Cl)ccc(O)c21`, the T/C is 102 % of control (endpoint: mean survival time, dose: 3.13 mg/kg/injection, schedule: Q04DX002 (ip), vehicle: other); 102 % of control (endpoint: mean survival time, dose: 6.25 mg/kg/injection, schedule: Q04DX002 (ip), vehicle: other); 96 % of control and 102 % of control (endpoint: mean survival time, dose: 12.5 mg/kg/injection, schedule: Q04DX002 (ip), vehicle: other).

With `C=C(C)COc1c(C)cc(C)cc1[N+](=O)[O-]`, the T/C by setting is: under setting [1], 98 % of control; under setting [2], 100 % of control; under setting [3], 104 % of control.

As for `Cc1ccc(S(=O)(=O)NC(=O)NCCC(C)C)cc1`, the T/C reads like this: (endpoint: mean survival time, dose: 100.0 mg/kg/injection, schedule: Q01DX009 (ip), vehicle: saline sonified) 104 % of control; (endpoint: mean survival time, dose: 200.0 mg/kg/injection, schedule: Q01DX009 (ip), vehicle: saline sonified) 97 % of control; (endpoint: mean survival time, dose: 400.0 mg/kg/injection, schedule: Q01DX009 (ip), vehicle: saline sonified) 98 % of control.

With `COC(=O)/C=C/C(=O)NC(N)=O`, the T/C was 91 % of control (endpoint: mean survival time, dose: 6.25 mg/kg/injection, schedule: Q04DX003 (ip), vehicle: saline); 113 % of control (endpoint: mean survival time, dose: 12.5 mg/kg/injection, schedule: Q04DX003 (ip), vehicle: saline); 100 % of control (endpoint: mean survival time, dose: 25.0 mg/kg/injection, schedule: Q04DX003 (ip), vehicle: saline).

As to `CCOC1=C(C)C(=O)C1C` (stereo not drawn), the T/C reads like this: (endpoint: mean survival time, dose: 100.0 mg/kg/injection, schedule: Q04DX003 (ip), vehicle: saline) 100 % of control; (endpoint: mean survival time, dose: 200.0 mg/kg/injection, schedule: Q04DX003 (ip), vehicle: saline) 94 % of control; (endpoint: mean survival time, dose: 400.0 mg/kg/injection, schedule: Q04DX003 (ip), vehicle: saline) 100 % of control.

For `O=c1[nH][nH]c2ccccc12`, the T/C reads like this: under setting [4], 98 % of control; under setting [5], 94 % of control; under setting [6], 98 % of control.

As to `O=C(COc1ccccc1)N/N=C/c1cccc([N+](=O)[O-])c1`, the T/C under setting [2] was 89 % of control and the T/C under setting [3] is 94 % of control.

For `NN=C1c2ccccc2-c2ccccc21`, the T/C runs as follows: under setting [4], 94 % of control; under setting [5], 86 % of control; under setting [6], 96 % of control.
